US11072575B1, “Method of preparing a cinnamyl alcohol retinoic acid ester with antioxidant and antibacterial activities” (priority 2020, dated 2021)

Tests used:
[1] = system: Multi-resistant Pseudomonas aeruginosa 18-202; assay: Paper diffusion drug sensitivity test, multi-resistant Pseudomonas aeruginosa 18-202; conditions: for Zone of inhibition: drug sensitive paper 6.35 mm, test drugs 30 μg/tablet, 37° C. 24 h; for Antibacterial effect (in words): summary of Table 4
[2] = DPPH radical scavenging activity assay; conditions: for DPPH clearance rate: 30 min, 517 nm, n = 3
From the text: In the DPPH molecule, due to the presence of multiple electron-withdrawing —NO2 and large π bonds of the benzene ring, nitrogen free radical is stabilized. Its methanol solution is purple and has a maximum absorption peak at 517 nm. After the addition of an antioxidant, DPPH captures an electron to be paired with the free electron, and the purple fades and turns into a yellow substance. The absorption at 517 nm disappears, and the degree of fading is quantitatively related to the number of electrons it captures. Based on this principle, a spectrophotometer is used to detect the change of the absorbance of the DPPH radical and the sample solution, and the ability of the sample to provide hydrogen atoms and scavenge free radicals can be measured. […] Vc (positive control), cinnamyl alcohol retinoic acid ester (sample), cinnamyl alcohol (control) and retinoic acid (control). The sample solution was subjected to gradient dilution with toluene, and three sets of controls were separately dissolved in a test tube with a certain amount of toluene to prepare the same concentration gradient as the sample. [table] […] Clearance calculation: Clearance Rate (%)=[1−(Ai−Aj)/Ao]*100%

[3] = system: Multi-resistant Staphylococcus aureus 18-596; assay: Paper diffusion drug sensitivity test, multi-resistant Staphylococcus aureus 18-596; conditions: for Zone of inhibition: drug sensitive paper 6.35 mm, test drugs 30 μg/tablet, 37° C. 24 h; for Antibacterial effect (in words): summary of Table 4

Row | Compound | Zone of inhibition [1] [mm] | Antibacterial effect (in words) [1] | DPPH clearance rate ([2]; 1.76 ppm in toluene) [%] | DPPH clearance rate ([2]; 8.80 ppm in toluene) [%] | DPPH clearance rate ([2]; 21.12 ppm in toluene) [%] | DPPH clearance rate ([2]; 42.24 ppm in toluene) [%] | DPPH clearance rate ([2]; 79.20 ppm in toluene) [%] | DPPH clearance rate ([2]; 112.64 ppm in toluene) [%] | DPPH clearance rate ([2]; 281.60 ppm in toluene) [%] | DPPH clearance rate ([2]; 492.80 ppm in toluene) [%] | DPPH clearance rate ([2]; 792.00 ppm in toluene) [%] | DPPH clearance rate ([2]; 915.20 ppm in toluene) [%] | Antioxidant activity (in words) ([2]; summary) | Zone of inhibition [3] [mm] | Antibacterial effect (in words) [3]
1 | CC1=C(/C=C/C(C)=C/C=C/C(C)=C/C(=O)OC/C=C/c2ccccc2)C(C)(C)CCC1 [Cinnamyl alcohol retinoic acid ester, (2E,4E,6E,8E)-cinnamyl 3,7-dimethyl-9-(2,6,6-trimethylcyclohex-1-en-1-yl)nona-2,4,6,8-tetraenoate] | 21 | strong resistance | 13.16 | 17.53 | 31.95 | 42.08 | 68.62 | 75.46 | 79.44 | 83.15 | 90.77 | 95.43 | excellent antioxidant activity | 20 | strong resistance
2 | OCC=Cc1ccccc1 [Cinnamyl alcohol, cinnamyl alcohol] | 6 | little inhibitory effect | 6.89 | 7.95 | 17.86 | 25.71 | 37.96 | 44.56 | 59.23 | 64.94 | 73.54 | 75.82 | – | 14 | little inhibitory effect
3 | CC1=C(/C=C/C(C)=C/C=C/C(C)=C/C(=O)O)C(C)(C)CCC1 [Retinoic acid, retinoic acid] | 7 | – | – | – | – | – | – | – | – | – | – | – | – | 8 | –
4 | CN[C@H](CC(C)C)C(=O)N[C@H]1C(=O)N[C@@H](CC(N)=O)C(=O)N[C@H]2C(=O)N[C@H]3C(=O)N[C@H](C(=O)N[C@H](C(=O)O)c4cc(O)cc(O)c4-c4cc3ccc4O)[C@H](O)c3ccc(c(Cl)c3)Oc3cc2cc(c3O[C@@H]2O[C@H](CO)[C@@H](O)[C@H](O)[C@H]2O[C@H]2C[C@](C)(N)[C@H](O)[C@H](C)O2)Oc2ccc(cc2Cl)[C@H]1O [Vancomycin] | 9 | – | – | – | – | – | – | – | – | – | – | – | – | 21 | –
5 | O=C1O[C@H]([C@@H](O)CO)C(O)=C1O [Vc] | – | – | 23.16 | 33.47 | 79.63 | 89.55 | 97.42 | 97.53 | 98.29 | 99.06 | 99.10 | 99.28 | – | – | –
6 | Gentamicin | 21 | – | – | – | – | – | – | – | – | – | – | – | – | 10 | –
